In patent US20220054448A1, “NOVEL POLYMETH[…] FOR SKELETAL MUSCLE MODULATION, METHODS AND USES THEREOF” (SOCIETE DES PRODUITS NESTLE S.A., priority 2018, published 2022):

System: Muscle Stem Cells
Assay: In vivo muscle regeneration after intramuscular cardiotoxin injury
Conditions: mouse, oral gavage 100 mg/kg body weight once a day from one week before cardiotoxin injury; muscles harvested 5 days after injury; versus water control
Procedure: FIG. 5—In Vivo Muscle Regeneration: Measurement of Early Phase Expansion and Differentiation of Muscle Stem Cells
Early phase of expansion and subsequent phase of myogenic differentiation of Muscle Stem Cells were evaluated.
Data are expressed as number of cells per area of injured muscle.
The size of each newly formed myofiber has been measured based on the expression of the eMHC and laminin that allow to recognize and delineate these nascent myofibers. Results are shown as mean myofiber cross-sectional area (μm^2).
In order to reproduce the physiological process of muscle regeneration that occurs in adult skeletal muscles in response to injury or disease, we performed an intramuscular injection of cardiotoxin into mouse hindlimb muscles. One week prior to the induction of the muscle injury, mice were given by oral gavage compounds of the invention; either cirsimaritin or xanthomicrol at 100 mg/kg body weight and water was used as a control. […] Several myogenic markers were then measured. […]
In particular, this is shown be the early phase of expansion evaluated by counting the number of Pax7+ cells shown in FIG. 5A and the subsequent phase of myogenic differentiation of Muscle Stem Cells measured by counting the number of myogenin+ cells shown in FIG. 5B, respectively. Data were expressed as number of cells per arear of injured muscle. […]

## COc1cc2oc(-c3ccc(O)cc3)cc(=O)c2c(O)c1OC [Cirsimaritin, 5,4′-Dihydroxy-6,7-dimethoxyflavone]
  in vivo muscle regeneration process (number of Pax7+ cells, number of myogenin+ cells, size of newly formed myofibers): promote the in vivo muscle regeneration process

## COc1c(OC)c(O)c2c(=O)cc(-c3ccc(O)cc3)oc2c1OC [Xanthomicrol, 5,4′-Dihydroxy-6,7,8-trimethoxyflavone]
  in vivo muscle regeneration process (number of Pax7+ cells, number of myogenin+ cells, size of newly formed myofibers): promote the in vivo muscle regeneration process
